Source: patent publication US11492359B2, “Near-infrared nerve-sparing fluorophores” (OREGON HEALTH & SCIENCE UNIVERSITY, priority 2018, dated 2022)

Experiment: UV-Vis absorption and fluorescence spectroscopy of the Oxazine library
Assay type: physicochemical
Conditions: for Extinction coefficient: Beer's Law plots; for Quantum yield: relative, references Oxazine 1, Oxazine 170, Rhodamine 101
Procedure: All reagents were purchased from Sigma Aldrich, Fisher Scientific, TCI, or Ark Pharm. Unless otherwise indicated, all commercially available starting materials were used directly without further purification. Analytical thin layer chromatography (TLC) was performed on Millipore ready-to-use plates with silica gel 60 (F254, 32-63 μm). Flash chromatography was performed on Sorbent Technologies silica gel for column chromatography or on a Biotage Isolera Flash System using SNAP Ultra cartridges. High-resolution mass spectra (HRMS) were measured on a ThermoElectron LTQ-Orbitrap high resolution mass spectrometer with a dedicated Accela HPLC system, or an Agilent 6244 time-of-flight LCMS with diode array detector VL+. LCMS and Purity Characterization Mass-to-charge ratio and purity of the Oxazine compounds were characterized on an Agilent 6244 time-of-flight tandem liquid chromatography mass spectroscopy (LCMS) with diode array detector VL+. Sample (10 μL) was injected into a C18 column (Poroshell 120, 4.6×50 mm, 2.7 micron), and eluted with a solvent system of A (H2O, 0.1% FA) and B (MeCN, 01.% FA) at 0.4 mL/min, from A/B=90/10 to 5/95 over 10 min, maintained at A/B=5/95 for additional 5 min. Ions were detected in positive ion mode by setting the capillary voltage at 4 kV and gas temperature at 350° C. Purity was calculated through area under the curve analysis of the absorbance at 254 nm. UV-Vis Absorption and Fluorescence Spectroscopy. UV-Vis spectra were collected with a Cary 50 UV-Vis spectrophotometer at room temperature, using a 1-cm quartz cuvette. Fluorescence spectra were collected on a Cary Eclipse fluorescence spectrophotometer (Agilent Technologies). All absorbance spectra were reference corrected. Extinction coefficient was calculated from Beer's Law plots of absorbance versus concentration. Fluorescence spectra were corrected for the wavelength dependent response of the R928 photomultiplier tube using a manufacturer generated correction file. Relative quantum yields are reported as the average of multiple measurements using multiple references, including Oxazine 1, Oxazine 170, and Rhodamine 101. Physicochemical Property Calculation. Physicochemical partition coefficients (Log D) values at pH 7.4, number of hydrogen bond donors and acceptors, polar surface area, and the number of rotatable bonds were calculated using Marvin and JChem calculator plugins (ChemAxon, Budapest, Hungary). Nerve-Specificity Screening using Direct/Topical Administration Each compound was screened for its tissue-specificity using a previously published direct/topical administration strategy in murine brachial plexus and sciatic nerves.^1 Each compound from the Oxazine library was formulated in the previously utilized co-solvent formulation (10% DMSO, 5% Kolliphor, 65% serum and 20% phosphate buffered saline) at 125 μM. 100 μL of the formulated Oxazine were incubated on the exposed brachial plexus or sciatic nerve for 5 minutes. The fluorophore containing solution was removed and the area was irrigated with saline 18 times to remove any unbound fluorophore. Co-registered fluorescence and color images were collected of each stained area 30 minutes after Oxazine direct/topical administration using a custom built macroscopic imaging system with 620/60 nm excitation and 700/75 nm bandpass emission filters. Custom written MatLab code was used to analyze the tissue specific fluorescence where regions of interest were selected on the nerve, muscle and adipose tissue using the white light images. These regions of interest were then analyzed on the co-registered matched fluorescence images permitting assessment of the nerve to muscle and nerve to adipose ratios in blinded manner. […]

Max Abs	Max Em	Max Ex	Extinction coefficient	Quantum yield	Structure (SMILES)
617 nm	636 nm	620 nm	60731 M⁻¹ cm⁻¹	32.91%	CC/N=c1/cc2oc3cc(NCC)ccc3nc-2cc1C [LGW01-18, (Z)—N-(7-(ethylamino)-2-methyl-3H-phenoxazin-3-ylidene)ethanaminium]
635 nm	660 nm	640 nm	41771 M⁻¹ cm⁻¹	3.31%	CCNc1ccc2nc3ccc(=[N+](CC)CC)cc-3oc2c1 [LGW01-25, N-ethyl-N-(7-(ethylamino)-3H-phenoxazin-3-ylidene)ethanaminium]
612 nm	631 nm	610 nm	21783 M⁻¹ cm⁻¹	40.27%	C/N=c1/cc2oc3cc(NC)c(C)cc3nc-2cc1C [LGW01-61, (Z)—N-(2,8-dimethyl-7-(methylamino)-3H-phenoxazin-3-ylidene)methanaminium]
635 nm	653 nm	635 nm	56713 M⁻¹ cm⁻¹	11.15%	CC/N=c1\ccc2nc3ccc(NCC)c(C)c3oc-2c1C [LGW02-57, (E)-N-(7-(ethylamino)-4,6-dimethyl-3H-phenoxazin-3-ylidene)ethanaminium]
620 nm	635 nm	620 nm	42685 M⁻¹ cm⁻¹	25.26%	CC/N=c1/cc2oc3c(C)c(NCC)ccc3nc-2cc1C [LGW02-58, (Z)—N-(7-(ethylamino)-2,6-dimethyl-3H-phenoxazin-3-ylidene)ethanaminium]
611 nm	636 nm	615 nm	41229 M⁻¹ cm⁻¹	31.74%	CC/N=c1/cc2oc3cc(NCC)cc(C)c3nc-2cc1C [LGW02-59, (Z)—N-(7-(ethylamino)-2,9-dimethyl-3H-phenoxazin-3-ylidene)ethanaminium]
645 nm	661 nm	650 nm	65369 M⁻¹ cm⁻¹	8.98%	CCNc1ccc2nc3ccc(=[N+](CC)CC)cc-3oc2c1C [LGW02-60, N-ethyl-N-(7-(ethylamino)-6-methyl-3H-phenoxazin-3-ylidene)ethanaminium]
630 nm	658 nm	635 nm	68548 M⁻¹ cm⁻¹	6.12%	CCNc1cc(C)c2nc3ccc(=[N+](CC)CC)cc-3oc2c1 [LGW02-61, N-ethyl-N-(7-(ethylamino)-9-methyl-3H-phenoxazin-3-ylidene)ethanaminium]
661 nm	680 nm	665 nm	39472 M⁻¹ cm⁻¹	13.18%	CC[N+](CC)=c1ccc2nc3cc4c5c(c3oc-2c1)CCCN5CCC4 [LGW02-86, N-ethyl-N-(2,3,6,7-tetrahydro-1H,5H,12H-quinolizino[1,9-bc]phenoxazin-12-ylidene)ethanaminium]
678 nm	690 nm	680 nm	59937 M⁻¹ cm⁻¹	15.03%	c1c2c3c(c4c1N=c1cc5c6c(c1O4)CCC[N+]=6CCC5)CCCN3CCC2 [LGW02-87, 2,3,6,7,12,13,16,17-octahydro-1H,5H,11H,15H-diquinolizino[1,9-bc:1′,9′-hi]phenoxazin-4-ium]
640 nm	657 nm	645 nm	59971 M⁻¹ cm⁻¹	23.58%	CC/N=c1/cc2oc3cc4c(cc3nc-2cc1C)CCCN4CC [LGW02-91, (Z)—N-(1-ethyl-8-methyl-1,2,3,4-tetrahydro-9H-pyrido[3,2-b]phenoxazin-9-ylidene)ethanaminium]
656 nm	673 nm	660 nm	43659 M⁻¹ cm⁻¹	9.27%	CCN1CCCc2cc3nc4ccc(=[N+](CC)CC)cc-4oc3cc21 [LGW02-92, N-ethyl-N-(1-ethyl-1,2,3,4-tetrahydro-9H-pyrido[3,2-b]phenoxazin-9-ylidene)ethanaminium]
640 nm	675 nm	665 nm	59971 M⁻¹ cm⁻¹	24.67%	CCN1CCCc2cc3c(cc21)Oc1cc2c(cc1=N3)CCC[N+]=2CC [LGW02-99, 1,11-diethyl-3,4,8,9,10,11-hexahydro-2H-dipyrido[3,2-b:2′,3′-i]phenoxazin-1-ium]
640 nm	661 nm	640 nm	35942 M⁻¹ cm⁻¹	11.94%	CC/N=c1/cc2oc3cc(N4CCCC4)ccc3nc-2cc1C [LGW03-06, (Z)—N-(2-methyl-7-(pyrrolidin-1-yl)-3H-phenoxazin-3-ylidene)ethanaminium]
624 nm	638 nm	630 nm	40041 M⁻¹ cm⁻¹	27.22%	CC/N=c1/cc2oc3cc4c(cc3nc-2cc1C)CCCN4 [LGW03-12, (Z)—N-(8-methyl-1,2,3,4-tetrahydro-9H-pyrido[3,2-b]phenoxazin-9-ylidene)ethanaminium]
641 nm	659 nm	645 nm	64045 M⁻¹ cm⁻¹	6.49%	CC[N+](CC)=c1ccc2nc3cc4c(cc3oc-2c1)NCCC4 [LGW03-13, N-ethyl-N-(1,2,3,4-tetrahydro-9H-pyrido[3,2-b]phenoxazin-9-ylidene)ethanaminium]
661 nm	680 nm	665 nm	66206 M⁻¹ cm⁻¹	3.49%	CC[N+](CC)=c1ccc2nc3ccc(N4CCCCC4)cc3oc-2c1 [LGW03-18, N-ethyl-N-(7-(piperidin-1-yl)-3H-phenoxazin-3-ylidene)ethanaminium]
642 nm	661 nm	640 nm	36049 M⁻¹ cm⁻¹	2.25%	CC/N=c1/cc2oc3cc(N4CCCCC4)ccc3nc-2cc1C [LGW03-21, (Z)—N-(2-methyl-7-(piperidin-1-yl)-3H-phenoxazin-3-ylidene)ethanaminium]
655 nm	674 nm	655 nm	48226 M⁻¹ cm⁻¹	15.78%	c1cc2nc3ccc(=[N+]4CCCC4)cc-3oc2cc1N1CCCC1 [LGW03-31, 1-(7-(pyrrolidin-1-yl)-3H-phenoxazin-3-ylidene)pyrrolidin-1-ium]
631 nm	644 nm	630 nm	45650 M⁻¹ cm⁻¹	29.92%	c1c2c(cc3c1N=c1cc4c(cc1O3)=NCCC4)NCCC2 [LGW03-32, 3,4,8,9,10,11-hexahydro-2H-dipyrido[3,2-b:2′,3′-i]phenoxazin-1-ium]
607 nm	641 nm	625 nm	19729 M⁻¹ cm⁻¹	25.80%	CC/N=c1/cc2oc3cc4c(cc3nc-2cc1C)OCCN4 [LGW03-41, (Z)—N-(9-methyl-3,4-dihydro-[1,4]oxazino[2,3-b]phenoxazin-8(2H)-ylidene)ethanaminium]
678 nm	699 nm	680 nm	38039 M⁻¹ cm⁻¹	6.82%	CCN1c2cc3oc4cc(=[N+](CC)CC)ccc-4nc3cc2C(C)=CC1(C)C [LGW03-52, N-ethyl-N-(1-ethyl-2,2,4-trimethyl-1,2-dihydro-9H-pyrido[3,2-b]phenoxazin-9-ylidene)ethanaminium]
